Measured values reported in patent publication US5574031A, “Piperazine carboxamides” (priority 1992, dated 1996).
Structures can show the parent of a compound that is named as a salt.

Tests used:
D2 -receptors = target: T1, D2 -receptors (Rattus norvegicus, UniProt P61169); test: Affinity to D2-receptors (3H-spiroperidol binding); details: 3H-spiroperidol as ligand
T1 construct: from tissue
Method: Test 2 Affinity to D2 -receptors.
The binding assay is carried out essentially as described by Leysen et al. (Mol. Pharmacol. 21,301-14, 1982) using ^3 H-spiroperidol as ligand.

5-HT2 receptors = target: T2, 5-HT2 receptors (Rattus norvegicus, UniProt P14842); test: Affinity to 5-HT2 receptors (3H-ketanserin binding); details: 3H-ketanserin as ligand
T2 construct: from tissue
T2 sequence (P14842 whole entry): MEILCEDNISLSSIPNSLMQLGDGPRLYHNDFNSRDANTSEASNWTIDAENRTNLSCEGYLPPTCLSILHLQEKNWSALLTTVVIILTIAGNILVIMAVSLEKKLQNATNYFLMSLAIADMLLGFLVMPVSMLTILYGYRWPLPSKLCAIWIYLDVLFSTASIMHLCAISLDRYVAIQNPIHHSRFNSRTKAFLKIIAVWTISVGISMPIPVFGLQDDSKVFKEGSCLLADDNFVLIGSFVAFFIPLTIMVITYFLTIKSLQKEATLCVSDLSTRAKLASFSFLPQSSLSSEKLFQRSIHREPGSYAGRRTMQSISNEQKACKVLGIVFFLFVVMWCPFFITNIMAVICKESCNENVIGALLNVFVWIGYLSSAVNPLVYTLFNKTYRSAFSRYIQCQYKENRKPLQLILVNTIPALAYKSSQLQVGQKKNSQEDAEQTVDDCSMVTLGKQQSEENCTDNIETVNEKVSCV
Method: Test 1. Affinity to 5-HT2 receptors
The binding assay is carried out essentially as described by Leysen et al. (Mol. Pharmacol. 21,301-14, 1982) using ^3 H-ketanserin as ligand.

T1 sequence (P61169 whole entry): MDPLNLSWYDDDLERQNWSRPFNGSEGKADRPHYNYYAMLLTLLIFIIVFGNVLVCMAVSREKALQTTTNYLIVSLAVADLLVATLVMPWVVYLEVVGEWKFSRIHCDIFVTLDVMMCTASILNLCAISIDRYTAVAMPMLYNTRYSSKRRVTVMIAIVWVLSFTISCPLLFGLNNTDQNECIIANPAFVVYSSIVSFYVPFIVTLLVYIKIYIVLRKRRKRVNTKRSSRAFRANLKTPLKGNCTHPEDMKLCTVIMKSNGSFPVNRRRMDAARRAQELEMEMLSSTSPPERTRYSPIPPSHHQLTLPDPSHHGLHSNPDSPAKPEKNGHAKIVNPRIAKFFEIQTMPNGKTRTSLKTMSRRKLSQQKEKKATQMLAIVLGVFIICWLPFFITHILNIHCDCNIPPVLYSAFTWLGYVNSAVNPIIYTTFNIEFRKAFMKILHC

Row | Structure (SMILES) | Ki (D2 -receptors) | Ki (5-HT2 receptors)
1 | CCNC(=O)N1CCN(CCOC(c2ccc(F)cc2)c2ccc(F)cc2)CC1 [3:1, 4-[2-[(4,4'Difluorobenzhydryl)oxy]-ethyl]-N-ethyl-1-piperazinecarboxamide hydrochloride] | > 10000 nM | 60 nM
2 | CNC(=S)N1CCN(CCOC(c2ccc(F)cc2)c2ccc(F)cc2)CC1 [3:4, 4-[2-[(4,4'Difluorobenzhydryl)oxy]-ethyl]-N-methyl-1-piperazinethiocarboxamide hydrochloride] | 1600 nM | 20 nM
3 | O=C(N1CCCC1)N1CCN(CCOC(c2ccc(F)cc2)c2ccc(F)cc2)CC1 [6:2, 1-[2-[(4,4'-Difluorobenzhydryl)oxy]ethyl]-4-(pyrrolidino-carbonyl)piperazine hydrochloride] | 1780 nM | 15 nM
4 | CCNC(=O)N1CCN(CCCC(c2ccc(F)cc2)c2ccc(F)cc2)CC1 [Amperozide, reference compound] | 540 nM | 17 nM
